Laboratory results published in US6362369B1, “Phthalic acid diamide derivatives fluorine-containing aniline compounds as starting material, agricultural and horticultural insecticides, and a method for application of the insecticides” (Nihon Nohyaku Co., Ltd., priority 1997, dated 2002).

How the values were obtained:
Format in all cases: in vivo
[1] = system: rice leafroller (Cnaphalocrocis medinalis); assay: Insecticidal effect on rice leafroller (Test Example 3); conditions: 500 ppm, 25° C., humidity 70%; for Insecticidal effect on rice leafroller (Test Example 3), judged grade / Insecticidal effect (Test Example 3), judged from mortality: rice lamina dip; for Insecticidal effect on rice leafroller (Test Example 3), judged grade: third-instar larvae; for Insecticidal effect on rice leafroller (Test Example 3), judged grade / Insecticidal effect, Test Example 3: four days after inoculation; for Insecticidal effect, Test Example 3: rice lamina immersed; for Insecticidal effect (Test Example 3), judged from mortality: 4 days after inoculation
Summary of the method: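 Groups of 10 third-instar larvae, in triplicate, are placed on air-dried lamina resting on wet filter paper. Incubation runs four days at 25° C with 70% humidity before survivors and dead are tallied.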

[2] = system: diamondback moth (Plutella xylostella); assay: Insecticidal effect on diamondback moth (Test Example 1); conditions: for Insecticidal effect on diamondback moth (Test Example 1), judged grade: mortality judged according to the criterion shown in Test Example 1; for Insecticidal effect, Test Example 1 / Insecticidal effect (Test Example 1), judged from mortality: diamondback moth; for Insecticidal effect (Test Example 1), judged from mortality: judged by the criterion of Test Example 1
Summary of the method: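 Read-out was mortality from hatched-insect counts taken 6 days after the egg-bearing cabbage seedling was immersed, graded by set criteria. Seedlings were air-dried and kept at 25° C after treatment. Groups of 10 insects, in triplicate.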

[3] = system: common cutworm (Spodoptera Litura); assay: Insecticidal effect on common cutworm (Test Example 2); conditions: 500 ppm, 25° C.; for Insecticidal effect on common cutworm (Test Example 2), judged grade / Insecticidal effect (Test Example 2), judged from mortality: cabbage leaf dip; for Insecticidal effect on common cutworm (Test Example 2), judged grade: second-instar larvae; for Insecticidal effect on common cutworm (Test Example 2), judged grade / Insecticidal effect, Test Example 2: eight days after inoculation; for Insecticidal effect, Test Example 2: cabbage leaf immersed; for Insecticidal effect (Test Example 2), judged from mortality: 8 days after inoculation
Summary of the method: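 Second-instar larvae placed in 9 cm Petri dishes with air-dried treated material, held at 25 °C. Dead and live insects counted 8 days after inoculation; mortality calculated and scored against a set criterion. Triplicate groups of 10 insects.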

[4] = third-instar larvae of rice leafroller
[5] = judged by the mortality criterion of Test Example 1
[6] = second-instar larvae of common cutworm
[7] = rice leafroller third-instar larvae
[8] = mortality judged by criterion of Test Example 1
[9] = common cutworm second-instar larvae

For `Cc1cc(OC(F)F)ccc1NC(=O)c1cccc(F)c1C(=O)NC(C)C` [compound 500], the “Insecticidal effect on rice leafroller (Test Example 3), judged grade” value (“Insecticidal effect on rice leafroller” for short) [1] was “A (100)”, the “Insecticidal effect on diamondback moth (Test Example 1), judged grade” value (“Insecticidal effect on diamondback moth” for short) [2] was “A (100)” and the “Insecticidal effect on common cutworm (Test Example 2), judged grade” value (from here on “Insecticidal effect on common cutworm”) [3] was “B (99-90)”.

For `Cc1cc(C(F)(F)C(F)(F)C(F)(F)C(F)(F)C(F)(F)C(F)(F)F)ccc1NC(=O)c1cccc(Cl)c1C(=O)NC(C)C` [compound 133], the “Insecticidal effect, Test Example 3” value [1, 4] was “A (100)”, the “Insecticidal effect, Test Example 1” value [2, 5] was “A (100)” and the “Insecticidal effect, Test Example 2” value [3, 6] was “A (100)”.

In the case of `Cc1cc(Oc2ccc(C(F)(F)F)cc2Cl)ccc1NC(=O)c1cccc(F)c1C(=O)NC(C)C` [compound 521], the “Insecticidal effect on rice leafroller” value [1] is reported as “A (100)”, the “Insecticidal effect on diamondback moth” value [2] is reported as “A (100)” and the “Insecticidal effect on common cutworm” value [3] is reported as “A (100)”.

`Cc1c(NC(=O)c2cccc([N+](=O)[O-])c2C(=O)NC(C)C)cccc1C(F)(F)F` [compound 681] was tested, and the “Insecticidal effect on rice leafroller” value [1] was “A (100)”, the “Insecticidal effect on diamondback moth” value [2] was “A (100)” and the “Insecticidal effect on common cutworm” value [3] was “A (100)”.

In the case of `Cc1cc(OC(F)F)ccc1NC(=O)c1cccc(Cl)c1C(=O)NC(C)C` [compound 138], the “Insecticidal effect, Test Example 3” value [1, 4] is reported as “A (100)”, the “Insecticidal effect, Test Example 1” value [2, 5] is reported as “A (100)” and the “Insecticidal effect, Test Example 2” value [3, 6] is reported as “A (100)”.

`Cc1cc(F)ccc1NC(=O)c1cccc(Br)c1C(=O)NC(C)C` [compound 275] was tested, and the “Insecticidal effect, Test Example 3” value [1, 4] was “A (100)”, the “Insecticidal effect, Test Example 1” value [2, 5] was “A (100)” and the “Insecticidal effect, Test Example 2” value [3, 6] was “D (79-50)”.

With `Cc1cc(OC(F)(F)F)ccc1NC(=O)c1cccc(I)c1C(=O)NC(C)(C)CCl` [compound 1627] the “Insecticidal effect (Test Example 3), judged from mortality” value [1, 4] was “A (100)”, the “Insecticidal effect (Test Example 1), judged from mortality” value [2] was “A (100)” and the “Insecticidal effect (Test Example 2), judged from mortality” value [3, 6] was “A (100)”.

With `Cc1cc(C(F)(F)C(F)(F)C(F)(F)C(F)(F)F)ccc1NC(=O)c1cccc(I)c1C(=O)NC(C)C` [compound 375] the “Insecticidal effect, Test Example 3” value [1, 4] was “A (100)”, the “Insecticidal effect, Test Example 1” value [2, 5] was “A (100)” and the “Insecticidal effect, Test Example 2” value [3, 6] was “A (100)”.

With `CCC(CC)NC(=O)c1c(I)cccc1C(=O)Nc1ccc(C(F)(F)C(F)(F)F)cc1C` [compound 1011] the “Insecticidal effect, Test Example 3” value [1, 7] was “A (100)”, the “Insecticidal effect, Test Example 1” value [2, 8] was “A (100)” and the “Insecticidal effect, Test Example 2” value [3, 9] was “A (100)”.

In the case of `CCC(C)NC(=O)c1c(Cl)cccc1C(=O)Nc1ccc(C(F)(F)C(F)(F)C(F)(F)F)cc1F` (stereo not drawn) [compound 1500], the “Insecticidal effect (Test Example 3), judged from mortality” value [1, 4] is reported as “A (100)”, the “Insecticidal effect (Test Example 1), judged from mortality” value [2] is reported as “A (100)” and the “Insecticidal effect (Test Example 2), judged from mortality” value [3, 6] is reported as “A (100)”.

For `Cc1cc(OC(F)(F)Br)ccc1NC(=O)c1ccccc1C(=O)NC(C)(C)C` [compound 1049], the “Insecticidal effect, Test Example 3” value [1, 7] was “A (100)”, the “Insecticidal effect, Test Example 1” value [2, 8] was “A (100)” and the “Insecticidal effect, Test Example 2” value [3, 9] was “A (100)”.

`Cc1cc(C(F)(F)C(F)(F)C(F)(F)C(F)(F)F)ccc1NC(=O)c1c(I)cccc1C(=O)NC(C)C` [compound 440] was tested, and the “Insecticidal effect, Test Example 3” value [1, 4] was “B (99-90)”, the “Insecticidal effect, Test Example 1” value [2, 5] was “A (100)” and the “Insecticidal effect, Test Example 2” value [3, 6] was “C (89-80)”.

With `Cc1cc(OC(F)(F)C(F)F)ccc1NC(=O)c1cccc(Br)c1C(=O)NC(C)C` [compound 293] the “Insecticidal effect, Test Example 3” value [1, 4] was “A (100)”, the “Insecticidal effect, Test Example 1” value [2, 5] was “A (100)” and the “Insecticidal effect, Test Example 2” value [3, 6] was “A (100)”.

`CCCNC(=O)c1c(I)cccc1C(=O)Nc1ccc(C(F)(F)C(F)(F)F)cc1C` [compound 1303] was tested, and the “Insecticidal effect, Test Example 3” value [1, 7] was “A (100)”, the “Insecticidal effect, Test Example 1” value [2, 8] was “A (100)” and the “Insecticidal effect, Test Example 2” value [3, 9] was “A (100)”.

For `COc1ccc(C#CC(C)(C)NC(=O)c2c(Cl)cccc2C(=O)Nc2ccc(C(F)(F)C(F)(F)F)cc2C)cc1` [compound 1572], the “Insecticidal effect (Test Example 3), judged from mortality” value [1, 4] was “A (100)”, the “Insecticidal effect (Test Example 1), judged from mortality” value [2] was “A (100)” and the “Insecticidal effect (Test Example 2), judged from mortality” value [3, 6] was “A (100)”.

For `CCCN(CCC)C(=O)c1c(I)cccc1C(=O)Nc1ccc(OC(F)(F)C(F)F)cc1C` [compound 1158], the “Insecticidal effect, Test Example 3” value [1, 7] was “A (100)”, the “Insecticidal effect, Test Example 1” value [2, 8] was “A (100)” and the “Insecticidal effect, Test Example 2” value [3, 9] was “D (79-50)”.

With `Cc1c(NC(=O)c2c(F)cccc2C(=O)NC(C)C)cccc1OC(F)F` [compound 558] the “Insecticidal effect on rice leafroller” value [1] was “A (100)”, the “Insecticidal effect on diamondback moth” value [2] was “A (100)” and the “Insecticidal effect on common cutworm” value [3] was “A (100)”.

For `Cc1cc(Br)ccc1NC(=O)c1ccccc1C(=O)NC(C)C` [compound 52], the “Insecticidal effect, Test Example 3” value [1, 4] was “A (100)”, the “Insecticidal effect, Test Example 1” value [2, 5] was “A (100)” and the “Insecticidal effect, Test Example 2” value [3, 6] was “A (100)”.
